In this assay the target is cAMP and cAMP-inhibited cGMP 3',5'-cyclic phosphodiesterase 10A (Homo sapiens, UniProt Q9Y233). Briefly: Fluorescence Polarization Assay: The fluorescence polarization assay for cyclic nucleotide phosphodiesterases was performed using an IMAP® FP kit supplied by Molecular Devices, Sunnyvale, Calif. (product # R8139). IMAP® technology has been applied previously to phosphodiesterase assays (Huang, W., et al., J. Biomol Screen, 2002, 7: 215). Assays were performed at room temperature in 384-well microtiter plates with an incubation volume of 20.2 μL. Solutions of test compounds were prepared in DMSO and serially diluted with DMSO to yield 8 μL of each of 10 solutions differing by 3-fold in concentration, at 32 serial dilutions per plate. 100% inhibition is determined using a known PDE10 inhibitor, which can be any compound that is present at 5,000 times its Ki value in the assay described as follows, such as papaverine (see Siuciak, et al. Neuropharmacology (2006) 51:386-396; Becker, et al. Behav Brain Res (2008) 186(2):155-60; Threlfell, et al., J Pharmacol Exp Ther (2009) 328(3):785-795), 2-{4-[pyridin-4-yl-1-(2,2,2-trifluoroethyl)-1H-pyrazol-3-yl]phenoxymethyl}quinoline succinic acid or 2-[4-(1-methyl-4-pyridin-4-yl-1H-pyrazol-3-yl)-phenoxymethyl]quinoline succinic acid (see Schmidt, et al. J Pharmacol Exp Ther (2008) 325:681-690; Threlfell, et al., J Pharmacol Exp Ther (2009) 328(3): 785-795). 0% of inhibition is determined by using DMSO (1% final concentrations). […]. For orientation: Fluorescence polarisation rises when a labelled molecule tumbles more slowly, as on binding a larger partner.

One compound from ChEMBL document CHEMBL3886786, “1,3 substituted azetidine PDE10 inhibitors” (2016) can be followed below.

pKi: −log10 of the molar value.

Chain of cAMP and cAMP-inhibited cGMP 3',5'-cyclic phosphodiesterase 10A (Q9Y233 whole entry): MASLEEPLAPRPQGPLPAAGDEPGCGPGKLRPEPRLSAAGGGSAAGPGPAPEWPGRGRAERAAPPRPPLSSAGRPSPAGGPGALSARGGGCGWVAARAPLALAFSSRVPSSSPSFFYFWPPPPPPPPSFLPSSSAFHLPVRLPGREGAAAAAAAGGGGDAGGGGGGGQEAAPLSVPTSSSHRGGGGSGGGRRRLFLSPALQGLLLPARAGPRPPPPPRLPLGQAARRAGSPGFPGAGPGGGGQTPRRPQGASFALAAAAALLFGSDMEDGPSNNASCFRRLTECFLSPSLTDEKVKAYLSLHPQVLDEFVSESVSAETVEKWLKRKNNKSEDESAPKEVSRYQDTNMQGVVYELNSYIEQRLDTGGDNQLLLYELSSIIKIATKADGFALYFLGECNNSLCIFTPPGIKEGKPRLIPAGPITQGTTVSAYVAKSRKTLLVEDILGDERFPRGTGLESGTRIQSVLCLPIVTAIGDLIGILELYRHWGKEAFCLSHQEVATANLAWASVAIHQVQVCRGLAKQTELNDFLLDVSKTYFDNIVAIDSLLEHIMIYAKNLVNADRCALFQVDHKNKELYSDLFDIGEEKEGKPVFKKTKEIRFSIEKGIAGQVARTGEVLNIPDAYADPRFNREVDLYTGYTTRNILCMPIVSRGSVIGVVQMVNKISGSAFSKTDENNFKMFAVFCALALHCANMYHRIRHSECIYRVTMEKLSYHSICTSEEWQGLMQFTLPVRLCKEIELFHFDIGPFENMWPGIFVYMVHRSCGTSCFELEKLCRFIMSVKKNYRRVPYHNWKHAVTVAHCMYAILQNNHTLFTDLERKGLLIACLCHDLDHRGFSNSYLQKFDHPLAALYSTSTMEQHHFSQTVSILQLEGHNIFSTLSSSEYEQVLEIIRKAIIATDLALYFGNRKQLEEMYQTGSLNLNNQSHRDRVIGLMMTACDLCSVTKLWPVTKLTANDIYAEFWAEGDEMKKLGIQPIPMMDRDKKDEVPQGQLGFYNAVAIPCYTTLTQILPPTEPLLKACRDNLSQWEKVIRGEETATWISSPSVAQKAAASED

Take `Cc1nc(N2CC(c3nc4ccccc4n3C)C2)cc(-n2nc(C)nc2C2CCOCC2)n1`: the pKi (usually the Ki on a negative log10 scale, so that one unit is a factor of ten) is 8.66.
